Tests used:
[1] = tested on: A2780 (ovarian cell line); test: Cytotoxicity assay (propidium iodide assay), A2780; assay type: cell-based; conditions: Homo sapiens, A2780 cells, 48 h treatment
Experimental: (§1) The assay was designed as in the reference, Anticancer Drugs, 2002, 13, 1-8, the disclosure of which is incorporated by reference for the teaching of the assay.
(§2) Cells from cell lines A2780 (ovarian cell line) and PC3 (prostate cell line) (both from ATCC) were seeded at a density of 3000 cells/well in a white opaque 96-well plate. Following incubation at 37° C./5% CO2 for a period of 18-24 h, the cells were treated with various concentrations (stock solution was prepared in DMSO and subsequent dilutions were made in media as per ATCC guidelines) of the test compounds for a period of 48 h. At the end of treatment, the culture medium was discarded, the cells were washed with 1×PBS and 200 μl of 7 μg/ml propidium iodide was added to each well. The plates were frozen at −70° C. overnight. For analysis, the plates were warmed to RT, allowed to thaw and were read in PoleStar fluorimeter with the fluorescence setting. The percentage of viable cells in the non-treated set of wells was considered to be 100 and the percentage viability following treatment was calculated accordingly. IC50 values were calculated from graphs plotted using these percentages.

[2] = tested on: PC3 (prostate cell line); test: Cytotoxicity assay (propidium iodide assay), PC3; assay type: cell-based; conditions: Homo sapiens, PC-3, PC3 cells, 48 h treatment
Experimental: as §1, §2

SMILES | inhibition at 1 µM [1] [%] | inhibition at 1 µM [2] [%] | IC50 [1] [µM] | IC50 [2] [µM]
COc1ccc(-n2c(=NC#N)n(C)c3cnc4ccc(-c5cccnc5C)cc4c32)cn1 [Example 45, N-(1-(6-methoxypyridin-3-yl)-3-methyl-8-(2-methylpyridin-3-yl)-1H-imidazo[4,5-c]quinolin-2(3H)-ylidene)cyanamide] | 30 to 70 | < 30 | – | –
COc1ccc(-n2c(=NC#N)n(C)c3cnc4ccc(-c5ccc(O)cc5)cc4c32)cn1 [Example 46, N-(8-(4-hydroxyphenyl)-1-(6-methoxypyridin-3-yl)-3-methyl-1H-imidazo[4,5-c]quinolin-2(3H)-ylidene)cyanamide] | ≥ 70 | 30 to 70 | – | –
COc1ccc(-n2c(=NC#N)n(C)c3cnc4ccc(-c5cc(F)ccc5OC)cc4c32)cn1 [Example 47, N-(8-(5-fluoro-2-methoxyphenyl)-1-(6-methoxypyridin-3-yl)-3-methyl-1H-imidazo[4,5-c]quinolin-2(3H)-ylidene)cyanamide] | < 30 | < 30 | – | –
COc1ccc(-c2ccc3ncc4c(c3c2)n(-c2ccc(OC)nc2)c(=NC#N)n4C)cn1 [Example 48, N-(1,8-bis(6-methoxypyridin-3-yl)-3-methyl-1H-imidazo[4,5-c]quinolin-2(3H)-ylidene)cyanamide] | ≥ 70 | 30 to 70 | – | –
COc1ccc(-n2c(=NC#N)n(C)c3cnc4ccc(-c5ccccc5OC)cc4c32)cn1 [Example 49, N-(8-(2-methoxyphenyl)-1-(6-methoxypyridin-3-yl)-3-methyl-1H-imidazo[4,5-c]quinolin-2(3H)-ylidene)cyanamide] | 30 to 70 | < 30 | – | –
Cn1c(=NC#N)n(-c2ccc(C(C)(C)C#N)nc2)c2c3cc(-c4ccc(O)cc4)ccc3ncc21 [Example 50, N-(1-(6-(2-cyanopropan-2-yl)pyridin-3-yl)-8-(4-hydroxyphenyl)-3-methyl-1H-imidazo[4,5-c]quinolin-2(3H)-ylidene)cyanamide] | ≥ 70 | 30 to 70 | – | –
COc1ccc(-c2ccc3ncc4c(c3c2)n(-c2ccc(C(C)(C)C#N)nc2)c(=NC#N)n4C)cn1 [Example 51, N-(1-(6-(2-cyanopropan-2-yl)pyridin-3-yl)-8-(6-methoxypyridin-3-yl)-3-methyl-1H-imidazo[4,5-c]quinolin-2(3H)-ylidene)cyanamide] | ≥ 70 | 30 to 70 | – | –
COc1ccc(F)cc1-c1ccc2ncc3c(c2c1)n(-c1ccc(C(C)(C)C#N)nc1)c(=NC#N)n3C [Example 52, N-(1-(6-(2-cyanopropan-2-yl)pyridin-3-yl)-8-(5-fluoro-2-methoxyphenyl)-3-methyl-1H-imidazo[4,5-c]quinolin-2(3H)-ylidene)cyanamide] | < 30 | < 30 | – | –
COc1ccccc1-c1ccc2ncc3c(c2c1)n(-c1ccc(C(C)(C)C#N)nc1)c(=NC#N)n3C [Example 53, N-(1-(6-(2-cyanopropan-2-yl)pyridin-3-yl)-8-(2-methoxyphenyl)-3-methyl-1H-imidazo[4,5-c]quinolin-2(3H)-ylidene)cyanamide] | 30 to 70 | < 30 | – | –
Cn1c(=NC#N)n(-c2ccc(C(C)(C)C#N)nc2)c2c3cc(-c4ccc5c(c4)OCO5)ccc3ncc21 [Example 54, N-(8-(benzo[d][1,3]dioxol-5-yl)-1-(6-(2-cyanopropan-2-yl)pyridin-3-yl)-3-methyl-1H-imidazo[4,5-c]quinolin-2(3H)-ylidene)cyanamide] | 30 to 70 | < 30 | – | –
COc1ncc(-c2ccc3ncc4c(c3c2)n(-c2ccc(C(C)(C)C#N)nc2)c(=NC#N)n4C)c(OC)n1 [Example 55, N-(1-(6-(2-cyanopropan-2-yl)pyridin-3-yl)-8-(2,4-dimethoxypyrimidin-5-yl)-3-methyl-1H-imidazo[4,5-c]quinolin-2(3H)-ylidene)cyanamide] | ≥ 70 | 30 to 70 | – | –
Cn1c(=NC#N)n(-c2ccc(C(C)(C)C#N)nc2)c2c3cc(-c4ccc5ncccc5c4)ccc3ncc21 [Example 56, N-(1-(6-(2-cyanopropan-2-yl)pyridin-3-yl)-3-methyl-8-(quinolin-6-yl)-1H-imidazo[4,5-c]quinolin-2(3H)-ylidene)cyanamide] | ≥ 70 | 30 to 70 | – | –
COc1cc(-c2ccc3ncc4c(c3c2)n(-c2ccc(C(C)(C)C#N)nc2)c(=NC#N)n4C)cc(OC)c1OC [Example 57, N-(1-(6-(2-cyanopropan-2-yl)pyridin-3-yl)-3-methyl-8-(3,4,5-trimethoxyphenyl)-1H-imidazo[4,5-c]quinolin-2(3H)-ylidene)cyanamide] | ≥ 70 | 30 to 70 | – | –
Cn1c(=NC#N)n(-c2ccc(C(C)(C)C#N)nc2)c2c3cc(-c4ccc5ccccc5c4)ccc3ncc21 [Example 62, N-(1-(6-(2-cyanopropan-2-yl)pyridin-3-yl)-3-methyl-8-(naphthalen-2-yl)-1H-imidazo[4,5-c]quinolin-2(3H)-ylidene)cyanamide] | 30 to 70 | 30 to 70 | – | –
Cn1c(=NC#N)n(-c2ccc(C(C)(C)C#N)nc2)c2c3cc(-c4cc(F)cc(F)c4)ccc3ncc21 [Example 63, N-(1-(6-(2-cyanopropan-2-yl)pyridin-3-yl)-8-(3,5-difluorophenyl)-3-methyl-1H-imidazo[4,5-c]quinolin-2(3H)-ylidene)cyanamide] | 30 to 70 | < 30 | – | –
Cn1c(=NC#N)n(-c2ccc(C(C)(C)C#N)nc2)c2c3cc(-c4cccnc4F)ccc3ncc21 [Example 64, N-(1-(6-(2-cyanopropan-2-yl)pyridin-3-yl)-8-(2-fluoropyridin-3-yl)-3-methyl-1H-imidazo[4,5-c]quinolin-2(3H)-ylidene)cyanamide] | 30 to 70 | < 30 | – | –
CC(C)Oc1ccccc1-c1ccc2ncc3c(c2c1)n(-c1ccc(C(C)(C)C#N)nc1)c(=NC#N)n3C [Example 65, N-(1-(6-(2-cyanopropan-2-yl)pyridin-3-yl)-8-(2-isopropoxyphenyl)-3-methyl-1H-imidazo[4,5-c]quinolin-2(3H)-ylidene)cyanamide] | < 30 | < 30 | – | –
COc1ccc(-c2ccc3ncc4c(c3c2)n(-c2ccc(C(C)(C)C#N)nc2)c(=NC#N)n4C)cc1OC [Example 66, N-(1-(6-(2-cyanopropan-2-yl)pyridin-3-yl)-8-(3,4-dimethoxyphenyl)-3-methyl-1H-imidazo[4,5-c]quinolin-2(3H)-ylidene)cyanamide] | ≥ 70 | ≥ 70 | – | –
Cc1ccc(-c2ccc3ncc4c(c3c2)n(-c2ccc(C(C)(C)C#N)nc2)c(=NC#N)n4C)cc1 [Example 67, N-(1-(6-(2-cyanopropan-2-yl)pyridin-3-yl)-3-methyl-8-p-tolyl-1H-imidazo[4,5-c]quinolin-2(3H)-ylidene)cyanamide] | 30 to 70 | 30 to 70 | – | –
Cn1c(=NC#N)n(-c2ccc(C(C)(C)C#N)nc2)c2c3cc(-c4ccc(C(F)(F)F)cc4)ccc3ncc21 [Example 68, N-(1-(6-(2-cyanopropan-2-yl)pyridin-3-yl)-3-methyl-8-(4-(trifluoromethyl)phenyl)-1H-imidazo[4,5-c]quinolin-2(3H)-ylidene)cyanamide] | 30 to 70 | < 30 | – | –
Cn1c(=NC#N)n(-c2ccc(C(C)(C)C#N)nc2)c2c3cc(-c4cccc(C(F)(F)F)c4)ccc3ncc21 [Example 69, N-(1-(6-(2-cyanopropan-2-yl)pyridin-3-yl)-3-methyl-8-(3-(trifluoromethyl)phenyl)-1H-imidazo[4,5-c]quinolin-2(3H)-ylidene)cyanamide] | ≥ 70 | 30 to 70 | – | –
Cn1c(=NC#N)n(-c2ccc(C(C)(C)C#N)nc2)c2c3cc(-c4cncc(CNC(=O)OC(C)(C)C)c4)ccc3ncc21 [Example 71, tert-butyl (5-(2-(cyanoimino)-1-(6-(2-cyanopropan-2-yl)pyridin-3-yl)-3-methyl-2,3-dihydro-1H-imidazo[4,5-c]quinolin-8-yl)pyridin-3-yl)methylcarbamate] | < 30 | < 30 | – | –
Cn1c(=NC#N)n(-c2ccc(C(C)(C)C#N)nc2)c2c3cc(-c4ccc(N5CCN(C(=O)OC(C)(C)C)CC5)nc4)ccc3ncc21 [Example 72, tert-butyl 4-(5-(2-(cyanoimino)-1-(6-(2-cyanopropan-2-yl)pyridin-3-yl)-3-methyl-2,3-dihydro-1H-imidazo[4,5-c]quinolin-8-yl)pyridin-2-yl)piperazine-1-carboxylate] | < 30 | < 30 | – | –
Cn1c(=NC#N)n(-c2ccc(C(C)(C)C#N)nc2)c2c3cc(-c4ccc(F)cc4)ccc3ncc21 [Example 80, N-(1-(6-(2-cyanopropan-2-yl)pyridin-3-yl)-8-(4-fluorophenyl)-3-methyl-1H-imidazo[4,5-c]quinolin-2(3H)-ylidene)cyanamide] | ≥ 70 | 30 to 70 | – | –
Cn1c(=NC#N)n(-c2ccc(C(C)(C)C#N)nc2)c2c3cc(-c4ccncc4)ccc3ncc21 [Example 81, N-(1-(6-(2-cyanopropan-2-yl)pyridin-3-yl)-3-methyl-8-(pyridin-4-yl)-1H-imidazo[4,5-c]quinolin-2(3H)-ylidene)cyanamide] | – | – | ≤ 0.5 | ≤ 0.5
